Test system: heparinized whole blood
Assay: Drug screening: inhibitor preincubation of whole blood, then PBS or rIL-2 stimulation, mRNA quantification
Format: cell-based, human
Source text: Beta-actin expression served as a control for the expression assay. Offensive immune markers characterized included tumor necrosis factor superfamily (TNFSF) 1 (lymphotoxin), 2 (TNFα), 5 (CD40L), 6 (FasL), 8 (CD30L), 9 (CD137L), 14 (LIGHT), and 15 (TL1A). Chemokines characterized included CCL2, CCL3, CCL4, CCL8, CCL11, CCL20, CXCL1, CXCL2, CXCL3, CXCL10. Interleukins characterized include IL6, IL8, IL10, IL17, and IL23. Immune effectors characterized include GM-CSF, INFγ, CD16, Granzyme B, CD122, and TGFB-1. Markers of defensive immune function characterized include FoxP3, CTLA4, CD25, and GARP-1. Other offensive or defensive immune markers, as well as other chemokines, interleukins or effectors (among other immune-associated markers) can be tested in certain embodiments.
Shaded boxes represent a fold increase of greater than 2 as well as a statistical p value of <0.05. […] The various inhibitor compounds used to pre-treat the whole blood samples are listing on the x-axis. […] Thus, this compound has a potential to block or reduce the offensive immune response and may function as a pro-immunosuppressant compound. […] Thus, from this set of experiments, it is unclear if this particular Jak inhibitor is well-suited for promoting offensive or defensive immune responses. Further dose-response studies and/or studies with additional immune markers are necessary to elucidate the efficacy of this compound.
Embodiments of the methods described herein are also well suited to the characterization of various derivative or modified compounds, in that a single assay can generate side by side data comparing of a panel of putative derivative compounds. Moreover, based on the distinct features of the data described above, embodiments of the methods described herein are useful to detecting defensive-specific (i.e. pro-offensive) inhibitor compounds for use in clinical situations. Thus, this assay platform is useful for the analysis/screening of common and selective inhibitors for offensive and defensive immune functions.

| SMILES | induction of TNFSF1 mRNA in response to rIL-2 in presence of inhibitor (inhibitor 10 mM, 1 hour preincubation, then rIL-2 100 ng/ml 4 hours, FIG. 3A) | induction of CD25 mRNA in response to rIL-2 in presence of inhibitor (inhibitor 10 mM, 1 hour preincubation, then rIL-2 100 ng/ml 4 hours, FIG. 3I) | induction of FoxP3 mRNA in response to rIL-2 in presence of inhibitor (inhibitor 10 mM, 1 hour preincubation, then rIL-2 100 ng/ml 4 hours, FIG. 3J) | induction of IFNγ in response to PBS or rIL-2 in presence of inhibitor (additional experiments, FIG. 4A-4B) | induction of TNFSF-1 in response to PBS or rIL-2 in presence of inhibitor (additional experiments, FIG. 4C-4D) | induction of CD25 in response to PBS or rIL-2 in presence of inhibitor (additional experiments, FIG. 4G-4H) | induction of FoxP3 in response to PBS or rIL-2 in presence of inhibitor (additional experiments, FIG. 4I-4J) |
| --- | --- | --- | --- | --- | --- | --- | --- |
| CC(C)(C)c1nc2c3cc[nH]c(=O)c3c3cc(F)ccc3c2[nH]1 [Jak inhibitor] | no induction | blocks induction | blocks induction |  |  |  |  |
| O=C1Nc2ccccc2/C1=C1/Nc2ccccc2/C1=N\OCC(O)CO (stereo not shown) [E084] |  |  |  | specific inhibition | specific inhibition | induced | induced |

— patent US20120258076A1, “METHOD FOR CHARACTERIZING HOST IMMUNE FUNTION BY EX VIVO INDUCTION OF OFFENSIVE AND DEFENSIVE IMMUNE MARKERS” (HITACHI CHEMICAL RESEARCH CENTER, INC., priority 2009, published 2012)
